Measured values: patent US4883815A, “Hydrocinnamic acid derivatives” (Hoffmann-La Roche Inc., priority 1987, dated 1989)

Assay: acute toxicity, single oral administration
Details: mouse, in vivo, po
Source text: Moreover, the Table contains data for the acute toxicity (LD50 in mg/kg in the case of single oral administration to mice).

SMILES | LD50 [mg/kg]
CCCCCCCOC(=O)CCc1cc(Cl)ccc1C(=O)CCCNC(C)=O [H H Cl H H O(CH2)6CH3 CH3 H H Oxo] | > 5000
CC(=O)NCCCC(=O)c1ccc(Cl)cc1CCC(N)=O [Example 19, 2-(4-acetamidobutyryl)-5-chlorohydrocinnamide] | > 4000

Same assay, conditions: mouse, in vivo; acute toxicity, single oral administration to mice

SMILES | LD50 [mg/kg]
CCOC(=O)CNC(=O)CCc1cc(Cl)ccc1C(=O)CCCNC(C)=O [Example 30, ethyl N-[2-(4-acetamidobutyryl)-5-chlorohydrocinnamoyl]-glycinate] | > 5000
CCOC(=O)CCc1cc(Cl)ccc1C(=O)CCCNC(C)=O [Example 2, ethyl 2-(4-acetamidobutyryl)-5-chloro-hydrocinnamate] | > 5000
CCOC(=O)CC[C@H](NC(=O)CCc1cc(Cl)ccc1C(=O)CCCNC(C)=O)C(=O)OCC [Example 29, diethyl N-[2-(4-acetamidobutyryl)-5-chlorohydrocinnamoyl]-L-glutamate] | > 5000
CCCOC(=O)CCc1cc(Cl)ccc1C(=O)CCCNC(C)=O [Example 3, propyl 2-(4-acetamidobutyryl)-5-chlorohydrocinnamate] | > 5000
CC(=O)NCCCC(=O)c1ccc(Cl)cc1CCC(=O)OC(C)C [Example 4, isopropyl 2-(4-acetamidobutyryl)-5-chlorohydrocinnamate] | > 4000
CCOC(=O)CCc1cc(Cl)ccc1C(=O)CCCNC(=O)CCCNC(C)=O [Example 8, ethyl 2-[4-(4-acetamidobutyramido)butyryl]-5-chlorohydrocinnamate] | > 5000
